Series [1] can be described thus: PK of EL244: plasma and lung levels after i.p. or inhaled administration. In kind it is in vivo, mice.
In the next series the test system is type 2 diabetes model. As to the kind of experiment: HFD/STZ type 2 diabetes model, oGTT. The series is classed as in vivo, C57bl/6 male mice. The conditions noted are these: i.p. 50 mg/kg daily, final 2 weeks. The method, then:
One-year old male mice were given a High-Fat Diet (D12492, Research Diets) for 10 weeks. During the sixth week of the HFD period, mice received three streptozotocin injections (40mg/kg). Control mice that were consuming a control diet (D12450Ji, Research Diets) received injections with the solvent of STZ, 50 mM sodium citrate buffer, pH 4.5. During the last two weeks of the HFD treatment, a subgroup of prediabetic mice was daily administered EL244 through intraperitoneal injections (50 mg/kg). Disease induction and EL244 efficacy were assessed using an Oral Glucose tolerance test (oGTT), as widely used.[64]^,[65]^,[66] 6-hr-fasted mice were administered a 10% glucose solution at 1 g/kg orally. Blood glucose levels were measured with a saccharometer before glucose administration and at 15, 30, 60, 90, and 120 min thereafter. Insulin resistance was assessed by the Area under curve (AUC) of the oGTT.

Experimental findings from PMC13198257, “An aerosolized dual-action autotaxin inhibitor-PPARγ agonist for the treatment of pulmonary fibrosis” (Cell Reports Medicine, 2026) are described below.

SMILES strings stand for the structures.

Molecule `O=C1NC(=O)C(Cc2ccc(OCCC3CCN(C(=O)OCc4cc(Cl)cc(Cl)c4)CC3)cc2)S1` (centres unmarked) [EL244, 3,5-dichlorobenzyl 4-(2-(4-((2,4-dioxothiazolidin-5-yl)methyl)phenoxy)ethyl)piperidine-1-carboxylate] returned a Plasma concentration in series [1] (i.p. 30 mg/Kg, 3 h) of roughly 35 μΜ. Further, in series [1] (inhaled 15 mg/kg), the “Clearance rate from the lung and absorption in the systemic circulation” value is “low”; the “Retention in the lung” value is “highly retained in the lung”. For the same molecule, in series [1] (mouse, plasma, ip, i.p. 30 mg/Kg, 1 hour), the concentration at 1 h was found to be 40 µM. The same molecule yielded a concentration at 9 h in series [1] (mouse, plasma, ip, i.p. 30 mg/Kg, 9 h post-dose) of 15 µM. In the series on type 2 diabetes model, the Glucose levels entry is recorded as “lower glucose levels”; the “Insulin resistance (AUC of oGTT)” value was “decreased insulin resistance”; the “PPARγ target gene expression in adipose and liver tissue” value was “stimulated the expression of several PPARγ target genes”.
